Source: paper PMC4581723, “Evaluation of In Vitro Activity of the Class I PI3K Inhibitor Buparlisib (BKM120) in Pediatric Bone and Soft Tissue Sarcomas” (PLoS ONE, 2015)
Where two headings read alike, the source gives them in different places.

Tests used:
phospho-Akt (S473) = test: Immunoblot (quantitative) of Akt phosphorylation; assay type: cell-based
MNNG = test: Cell viability assay (MTT), 72 h; assay type: cell-based; conditions: MNNG (OS), read-out: Buparlisib cell viability IC50
6647 = test: Cell viability assay (MTT), 72 h; assay type: cell-based; conditions: 6647 (ES), PIK3CA WT, read-out: Buparlisib cell viability IC50
MCF-7 = test: Cell viability assay (MTT), 72 h; conditions: read-out: Buparlisib cell viability IC50, MCF-7 (breast), PIK3CA E545K
Experimental: Cells were seeded in 96-well plates and drugs were added after overnight incubation, with each treatment condition performed in triplicate. After drug treatment, 10 μl of 5 mg/ml MTT (3-(4,5-dimethylthiazolyl-2)-2, 5-diphenyltetrazolium bromide) in PBS was added to cells and allowed to incubate for 2–4 hours at 37°C. […] Plate absorbance was read at 595 nm using a Bio-rad microplate reader. Percent viability was calculated by normalizing absorbance values to those from cells grown in media without drug after background subtraction. IC50 values were calculated by fitting dose-response curves to a four-parameter, variable slope sigmoid dose-response model (Prism Software, GraphPad).

SJSA = test: Cell viability assay (MTT), 72 h; assay type: cell-based; conditions: SJSA (OS), PIK3CA WT, read-out: Buparlisib cell viability IC50
A204 = test: Cell viability assay (MTT), 72 h; assay type: cell-based; conditions: Homo sapiens, A204 (RMS), PIK3CA WT, read-out: Buparlisib cell viability IC50
SKES = test: Cell viability assay (MTT), 72 h; assay type: cell-based; conditions: SKES (ES), PIK3CA WT, read-out: Buparlisib cell viability IC50
HOS = test: Cell viability assay (MTT), 72 h; assay type: cell-based; conditions: Homo sapiens, HOS (OS), PIK3CA WT, read-out: Buparlisib cell viability IC50
RD = test: Cell viability assay (MTT), 72 h; assay type: cell-based; conditions: Homo sapiens, RD (RMS), PIK3CA WT, read-out: Buparlisib cell viability IC50
[1] = system: ES (TC-174, A4573), OS (KHOS, MNNG), and RMS (RD) colonies; test: Soft agar assay (anchorage independent growth); assay type: cell-based; conditions: 14 days
Text: After 14 days of growth, colonies were stained with 0.005% crystal violet, imaged, and quantified using ImageJ. […] Increasing concentrations reduced both soft agar colony number and size (Fig 5A). Cell growth was inhibited within a narrower range than observed for anchorage dependent growth. […] (A) Plot of number and size of ES (TC-174, […]), OS (KHOS, MNNG), and RMS (RD) colonies formed in soft agar in the presence of DMSO or increasing concentrations of buparlisib. Columns represent the average of three replicates, error bars represent standard deviation. (B) Representative pictures of TC-174 soft agar colonies. (C) Immunoblot analysis of cleaved PARP in ES (TC-174, TC-32, […]), OS (KHOS), and RMS (RD, SJCRH30) treated with increasing doses of buparlisib for 24 hours. (D) Cell cycle analysis after 24 hours of buparlisib treatment of ES (TC-174, […]), OS (KHOS), and RMS (RD) cell lines. Data are the mean of two independent experiments.

TC-248 = test: Cell viability assay (MTT), 72 h; assay type: cell-based; conditions: TC-248 (ES), PIK3CA WT, read-out: Buparlisib cell viability IC50
[2] = system: pediatric sarcoma cell lines; test: Cell viability assay (MTT), panel of sarcoma cell lines; assay type: cell-based
PI3K = system: PI3K; set-up: method as in PMID 22188813; conditions: cited from earlier work
TC-174 = test: Cell viability assay (MTT), 72 h; assay type: cell-based; conditions: TC-174 (ES), PIK3CA WT, read-out: Buparlisib cell viability IC50
5838 = test: Cell viability assay (MTT), 72 h; assay type: cell-based; conditions: 5838 (ES), PIK3CA WT, read-out: Buparlisib cell viability IC50
TTC-475 = test: Cell viability assay (MTT), 72 h; assay type: cell-based; conditions: TTC-475 (ES), PIK3CA WT, read-out: Buparlisib cell viability IC50
phospho-p70 S6K (T389) = test: Immunoblot of signaling downstream of mTORC1; assay type: cell-based; conditions: increasing doses; one hour; compared with 4E-BP1
Experimental: (§1) Cells were incubated for approximately one hour on ice in lysis buffer (50 mM Tris pH 7.6, 0.5% NP-40, 10% glycerol, 30 mM NaCl, 1 mM EDTA) supplemented with Complete Mini EDTA-free protease inhibitor cocktail (Roche), 1 mM Na3VO4, and 1 mM NaF. […] Secondary antibodies conjugated to HRP were sheep anti-mouse IgG from GE Healthcare and goat anti-rabbit IgG from Santa Cruz Biotechnology. Secondary antibodies conjugated to infrared dyes were IRDye 800CW goat anti-mouse IgG and IRDye 680RD goat anti-rabbit IgG from LI-COR Biosciences. Fluorescent westerns were imaged using the Odyssey Infrared Imaging System (LI-COR Biosciences). Signals were quantified by measuring the integrated intensity values of each band using Odyssey software (LI-COR Biosciences).
(§2) We next evaluated the ability of buparlisib to inhibit cellular signaling downstream of PI3K. Increasing doses were added to cells and phosphorylation of signaling molecules was examined by immunoblot after one hour of treatment (Fig 2A). […] Phospho-Akt levels were normalized to levels of total Akt and fit to dose-response curves to calculate the half maximal inhibitory concentration (IC50) (Fig 2B).
(§3) Each data point represents the average of at least three independent experiments.

phospho-4E-BP1 (T37/46) = test: Immunoblot of signaling downstream of mTORC1; assay type: cell-based
Experimental: as §1, §2, §3

KHOS = test: Cell viability assay (MTT), 72 h; assay type: cell-based; conditions: KHOS (OS), PIK3CA WT, read-out: Buparlisib cell viability IC50
TC-32 = test: Cell viability assay (MTT), 72 h; assay type: cell-based; conditions: Homo sapiens, TC-32 (ES), PIK3CA WT, read-out: Buparlisib cell viability IC50
A673 = test: Cell viability assay (MTT), 72 h; assay type: cell-based; conditions: Homo sapiens, A673 (ES), PIK3CA WT, read-out: Buparlisib cell viability IC50
HT161 = test: Cell viability assay (MTT), 72 h; assay type: cell-based; conditions: HT161 (OS), PIK3CA WT, read-out: Buparlisib cell viability IC50
OS 187 = test: Cell viability assay (MTT), 72 h; assay type: cell-based; conditions: OS 187 (OS), read-out: Buparlisib cell viability IC50

In the case of `Nc1cc(C(F)(F)F)c(-c2cc(N3CCOCC3)nc(N3CCOCC3)n2)cn1` [Buparlisib], the “phospho-Akt levels compared to each drug alone” value (phospho-Akt (S473); combination with NVP-AEW541, A4573 cells, one hour of treatment) is reported as “reduced phospho-Akt levels”, the “time to maximum inhibition of Akt” value (phospho-Akt (S473); time course 5 min to 24 h, 1 μM (3 μM in A4573)) is reported as “approximately one” and the IC50 (MNNG) is reported as 1.6 µM. It also gave an IC50 6647 of 1.01 µM, an IC50 (MCF-7; Homo sapiens, MCF7, 72 h) of 0.173 µM and an IC50 (MCF-7) of 0.173 µM. The IC50 (SJSA) was 1.45 µM, the IC50 (A204) was 0.526 µM and the IC50 (SKES) was 0.822 µM. For the same compound, the IC50 (HOS) was 1.84 µM, the IC50 (RD) was 1.07 µM and the “concentrations at which no soft agar colony formation occurred” value [1] was “greater than 2 μM”. For the same compound, the “concentrations with minimal effects on soft agar colony formation” value [1] was “less than 1 μM”, the IC50 (TC-248) was 0.816 µM and the IC50 ([2]; ES and RMS cell lines in general, 72 h, read-out: cell viability IC50) was about 1 µM. The “concentrations at which synergistic effects were observed” value ([2]; buparlisib concentration in combination therapy) was “under 1 μM”, the “combination effect on cell viability” value ([2]; combined with rapamycin, four cell lines (TC-32, A673, RD, A4573), 72 h) was “Synergy” and the “combination effect on cell viability” value ([2]; combined with trametinib, cell lines with (A673, RD) and without (TC-32, A4573) MAPK pathway mutations, 72 h) was “Synergistic effects were only observed in cell lines that contained MAPK pathway mutations”. For the same compound, the “combination effect on cell viability” value ([2]; in combination with NVP-AEW541, ES and RMS cell lines, 72 h) was “Synergy”, the “combination effect on cell viability” value ([2]; in combination with NVP-AEW541, OS cell lines (MNNG), 72 h) was “additive effects” and the IC50 ([2]; median over sarcoma cell lines, 72 h, read-out: median IC50 value, cellular proliferation) was 1.1 µM. The “combination effect on cell viability” value ([2]; sequential treatment doxorubicin (4 h) then buparlisib (72 h), ratio 20:3, ES and OS cell lines) was “additive”, the “specificity to PI3K versus other protein kinases” value (PI3K) was “at least 50 fold” and the IC50 (TC-174) was 1.04 µM. The IC50 5838 was 1.61 µM, the IC50 (TTC-475) was 1.02 µM and the “Phosphorylation of S6K” value (phospho-p70 S6K (T389)) was “more potently inhibited”. The “Inhibition of phospho-4E-BP1” value (phospho-4E-BP1 (T37/46); increasing doses, one hour) was “only observed at high buparlisib concentrations”, the “phosphorylation of 4E-BP1” value (phospho-4E-BP1 (T37/46); treatment with both buparlisib and rapamycin, A4573 cells) was “more potently suppressed” and the IC50 (KHOS) was 1.57 µM. It also gave an IC50 (TC-32) of 0.972 µM, an IC50 (A673) of 1.78 µM and an IC50 (HT161) of 1.07 µM. For the same compound, the IC50 (OS 187) was 1.54 µM.
